Measurements taken from the supplement of paper PMC13380429.

Tests used:
Details in all cases: 72 h
[1] = test system: U2OS; experiment: relative viability EC50 (midpoint between 100% and the lowest measured viability); higher = less toxic
[2] = test system: Calu-3; experiment: as above
[3] = test system: Vero E6; experiment: as above
[4] = test system: U2OS; experiment: cell viability relative to DMSO; higher = less toxic
[5] = test system: HepG2; experiment: as above
[6] = test system: Calu-3; experiment: as above
[7] = test system: Vero E6; experiment: as above
[8] = test system: Caco-2; experiment: as above
[9] = test system: U2OS; experiment: drug sensitivity score (DSS) for viability; higher = more toxic; extreme values may be limits of the assay
[10] = test system: HepG2; experiment: as above
[11] = test system: Calu-3; experiment: as above
[12] = test system: Vero E6; experiment: as above
[13] = test system: Caco-2; experiment: as above
[14] = test system: Caco-2; experiment: relative viability EC50 (midpoint between 100% and the lowest measured viability); higher = less toxic
[15] = test system: HepG2; experiment: as above

SMILES	relative viability EC50 [1] [µM]	relative viability EC50 [2] [µM]	relative viability EC50 [3] [µM]	cell viability ([4]; 1 nM) [%]	cell viability ([4]; 10 nM) [%]	cell viability ([4]; 100 nM) [%]	cell viability ([4]; 1000 nM) [%]	cell viability ([4]; 10000 nM) [%]	cell viability ([5]; 1 nM) [%]	cell viability ([5]; 10 nM) [%]	cell viability ([5]; 100 nM) [%]	cell viability ([5]; 1000 nM) [%]	cell viability ([5]; 10000 nM) [%]	cell viability ([6]; 1 nM) [%]	cell viability ([6]; 10 nM) [%]	cell viability ([6]; 100 nM) [%]	cell viability ([6]; 1000 nM) [%]	cell viability ([6]; 10000 nM) [%]	cell viability ([7]; 1 nM) [%]	cell viability ([7]; 10 nM) [%]	cell viability ([7]; 100 nM) [%]	cell viability ([7]; 1000 nM) [%]	cell viability ([7]; 10000 nM) [%]	cell viability ([8]; 1 nM) [%]	cell viability ([8]; 10 nM) [%]	cell viability ([8]; 100 nM) [%]	cell viability ([8]; 1000 nM) [%]	cell viability ([8]; 10000 nM) [%]	drug sensitivity score [9]	drug sensitivity score [10]	drug sensitivity score [11]	drug sensitivity score [12]	drug sensitivity score [13]	relative viability EC50 [14] [µM]	relative viability EC50 [15] [µM]
Clc1ccc(COC(Cn2ccnc2)c2ccc(Cl)cc2Cl)cc1 (centres undefined) [econazole]	> 10	> 10	> 10	102	97.8	95.6	95.3	90.7	100	98.1	102	97.3	72.6	104	103	103	102	98.5	104	108	106	102	94.7	94.5	90.1	97	90.9	68.6	0	1.5	0	0	2.5		
Cn1nnc(-c2ccc(-c3ccc(N4C[C@H](CO)OC4=O)cc3F)cn2)n1 [tedizolid]	> 10	> 10	> 10	101	102	96.7	96.3	94.1	111	95.4	99.5	76.9	55.7	103	95.4	99.6	108	106	94	99.6	98.3	101	92.9	113	106	94.2	93.3	82.2	0	5.1	0	0	0.6	> 10	
COc1ccc2c(c1)c(CC(=O)O)c(C)n2C(=O)c1ccc(Cl)cc1 [indomethacin]	> 10	> 10		98.9	102	97.8	101	99.7	105	100	108	94.7	95	99.2	96.4	90.7	84.3	91.8						95.6	98.6	101	98.4	94.6	0	0	1		0	> 10	> 10
C[C@@H]1C[C@H]2[C@@H]3CCC4=CC(=O)C=C[C@]4(C)[C@@]3(F)[C@@H](O)C[C@]2(C)[C@@]1(O)C(=O)COP(=O)(O)O [DEXAMETHASONE SODIUM PHOSPHATE]	> 10	> 10		99.8	98.8	97.7	95.8	95.7	111	108	100	97.8	93.6	106	107	89.9	105	90						95.9	88	99.7	96.2	97.5	0	0	0		0	> 10	> 10
CN(c1nccc(=O)[nH]1)C1CCN(c2nc3ccccc3n2Cc2ccc(F)cc2)CC1 [mizolastine]	> 10	> 10	> 10	101	98.5	101	103	102						103	104	99.5	102	108	97.5	101	98.6	97.8	107	89.5	99.9	98	100	98.3	0		0	0	0	> 10	
[I-].[K+] [potassium-iodide]		> 10	> 10											99.9	111	96.2	102	95.1	102	99.7	103	101	106								0	0			
CC1=C(/C=C/C(C)=C/C=C/C(C)=C/C=O)C(C)(C)CCC1 [retinaldehyde]	> 10	> 10	> 10	104	107	101	99.4	92.9						98.9	108	104	88.8	87.4	99.2	95.1	95.2	95.3	99.9	100	104	89.5	97.8	90.4	0		0.6	0	0	> 10	
N=C(N)NCCC[C@@H](NC(=O)[C@@H]1CCCN1C(=O)[C@@H]1CSSCCC(=O)N[C@@H](Cc2ccc(O)cc2)C(=O)N[C@@H](Cc2ccccc2)C(=O)N[C@@H](CCC(N)=O)C(=O)N[C@@H](CC(N)=O)C(=O)N1)C(=O)NCC(N)=O [desmopressin-acetate]	> 10	> 10	> 10	97.5	93.8	96.6	96.3	100	106	96.2	110	107	106	101	92.7	110	93.4	102	105	108	106	101	99.4						0	0	0	0			> 10
COc1ccc(OC)c(C(O)C(C)N)c1 (centres undefined) [methoxamine]		> 10	> 10											93.7	99.6	103	100	109	109	107	99.4	102	102								0	0			
NS(=O)(=O)NCc1csc2ccccc12	> 10	> 10		102	106	96.4	104	99.8	109	97	111	98.7	112	90.7	93.4	94.8	103	95.4						84.1	95.7	96.2	94.3	87.3	0	0	0		0	> 10	> 10
CN(C)CCOc1cc(-c2cn[nH]c2)ccc1NC(=O)C1COc2ccccc2O1 (centres undefined) [SR-3677]	> 10	> 10		99.8	101	95.6	98.6	79.6	99.3	108	101	86	88.4	102	93.4	99.4	148	134	96.5	95.9	95.7	81.4	68.8	100	95.6	105	105	94.9	0.8	1.1	0	3.3	0	> 10	> 10
CCOc1nc2cccc(C(=O)OCc3oc(=O)oc3C)c2n1Cc1ccc(-c2ccccc2-c2noc(=O)[nH]2)cc1 [azilsartan-medoxomil]	> 10	> 10	> 10	98.7	101	94.7	97.3	92.8						104	102	96.3	101	93.1	113	107	107	99.4	101	107	86.4	83.3	107	85.1	0		0	0	0.1	> 10	
O=c1[nH]c(=O)n([C@H]2C[C@H](O)[C@@H](CO)O2)cc1I [idoxuridine]	> 10	> 10	> 10	98.4	103	101	106	99.6	101	104	95.8	94	62.5	106	96.6	110	93	96.5	99.1	104	97.8	99.8	84.5	101	101	94	105	95.9	0	2.8	0	0.3	0	> 10	
COc1cc2ncnc(Nc3ccc(O)c(Br)c3)c2cc1OC [WHI-P154]	> 10	1.29	0.642	103	101	99.5	93.1	86.3	108	102	101	89.7	70	106	103	94.3	72.6	28.6	101	98.4	82.8	68	35.6	95.8	96.6	89.8	83.6	68.8	0.4	2.7	7.2	8.2	3.4		
Clc1ccc(COC(Cn2ccnc2)c2ccc(Cl)cc2Cl)c(Cl)c1 (centres undefined) [miconazole]	> 10	> 10	> 10	95.5	94.9	102	94.2	92.4	97.6	109	103	96.2	75.5	101	98.8	102	91.6	87.1	106	106	101	102	97.2	96.3	98	96.2	85.9	72.1	0	1.5	0.5	0	2.4		> 10
CC(C)=CCC[C@](C)(O)[C@H]1CC[C@]2(C)[C@@H]1[C@H](O)C[C@@H]1[C@@]3(C)CC[C@H](O)C(C)(C)[C@@H]3[C@@H](O)C[C@]12C [hemomex-s]	> 10	> 10	> 10	97.4	101	99.8	101	100						105	109	112	105	93.4	96.1	93.9	96.6	98.8	99.2	113	106	103	111	96.9	0		0	0	0	> 10	
